Assay results taken from patent US20260001914A1, “MACROCYCLIC PEPTIDES TARGETING KRAS” (Merck Sharp & Dohme LLC, priority 2022, published 2026).
*1 amine or outer side, *2 acyl side, *3 side chain or, on linkers, in order; H or OH if unused. Where a SMILES comes first, the peptide text is derived from it. Bridges are numbered along the chain shown (N, C = ends). [ ]: non-standard residue; d: D form. The star is where a group is joined. NMeNva(5-imidazol-1-yl) = CN[C@@H](CCCn1ccnc1)C(=O)O; X59 = O=C([C@H](Cc1ccc(CN2CCCC2)cc1)N[*:1])[*:2]; Ala(pyrimidin-5-yl) = N[C@@H](Cc1cncnc1)C(=O)O; Phe(3-COOH) = N[C@@H](Cc1cccc(C(=O)O)c1)C(=O)O; NMe3Pal(6-Me) = CN[C@@H](Cc1ccc(C)nc1)C(=O)O; X6 = O=C([C@H](Cc1cnn(C2COC2)c1)N[*:1])[*:2]; X81 = Cc1ccc(C[C@H](N[*:1])C(=O)[*:2])c(F)n1; NMe3Pal(5-F) = CN[C@@H](Cc1cncc(F)c1)C(=O)O; Leu(4,5-dehydro) = C=C(C)C[C@H](N)C(=O)O; Nle(5,5-F2) = CC(F)(F)CC[C@H](N)C(=O)O; Phe(2-CN) = N#Cc1ccccc1C[C@H](N)C(=O)O; 1Nal = N[C@@H](Cc1cccc2ccccc12)C(=O)O; NHCH2CH2SCH2CO = O=C(CSCCN[*:1])[*:2]; X61 = O=C(C12COC(CN[*:1])(C1)C2)[*:2]; Phe(2-F) = N[C@@H](Cc1ccccc1F)C(=O)O; Abu(4,4-F2) = N[C@@H](CC(F)F)C(=O)O; NMe3Pal = CN[C@@H](Cc1cccnc1)C(=O)O; X1 = O=C(C12CC(CN[*:1])(C1)C2)[*:2]; NMeOrn(Me) = CNCCC[C@H](NC)C(=O)O; Ala(cPr) = N[C@@H](CC1CC1)C(=O)O; NMeF = CN[C@@H](Cc1ccccc1)C(=O)O; PhLac = O=C(O)[C@@H](O)Cc1ccccc1; 3Pal = N[C@@H](Cc1cccnc1)C(=O)O; d3Pal = N[C@H](Cc1cccnc1)C(=O)O; Ahp(2) = CCCCC[C@H](N)C(=O)O; Cba = N[C@@H](CC1CCC1)C(=O)O; hLeu = CC(C)CC[C@H](N)C(=O)O; αMeC = C[C@](N)(CS)C(=O)O; NMeA = CN[C@@H](C)C(=O)O; Nle = CCCC[C@H](N)C(=O)O; Nva = CCC[C@H](N)C(=O)O; CHF2 = FC(F)*

What follows are compounds tested against KRAS-G12D protein (Homo sapiens, UniProt P01116, G12D) (assay: SOS-mediated nucleotide exchange assay (BODIPY-GDP / Tb-streptavidin TR-FRET)).
Chain of KRAS-G12D protein (P01116 1-188 isoform P01116-2 G12D): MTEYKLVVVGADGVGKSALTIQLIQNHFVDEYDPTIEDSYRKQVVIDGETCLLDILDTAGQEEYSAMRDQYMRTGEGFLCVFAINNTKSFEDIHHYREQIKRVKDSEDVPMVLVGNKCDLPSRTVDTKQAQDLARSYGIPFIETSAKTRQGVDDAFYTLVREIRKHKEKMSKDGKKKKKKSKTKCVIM
Type: biochemical

Question: How did the EC50 turn out when `CCCC[C@@H]1NC(=O)[C@H](Cc2cncnc2)NC(=O)[C@H](CCCn2ccnc2)N(C)C(=O)[C@H](Cc2ccccc2)OC(=O)C23CC(CNC(=O)[C@H](Cc4cccnc4)N(C)C(=O)[C@H](CCCC)NC(=O)[C@H](Cc4ccccc4F)NC1=O)(C2)C3` [compound 240, cyclo(FLac-NMeNvalmid-PyrimAla-Nle-Phe2F-Nle-NMe3Pal-amBCP)] (cyclo([NMe3Pal][X1][PhLac][NMeNva(5-imidazol-1-yl)][Ala(pyrimidin-5-yl)][Nle][Phe(2-F)][Nle])) was run?
Answer: Its EC50 is 27.2 nM.

Question: Which EC50 does the source give for `CCCC[C@@H]1NC(=O)[C@H](Cc2cnn(C3COC3)c2)NC(=O)[C@H](C)N(C)C(=O)[C@H](Cc2ccccc2)OC(=O)C23CC(CNC(=O)[C@H](Cc4ccccc4)N(C)C(=O)[C@H](CCCC)NC(=O)[C@H](Cc4ccccc4F)NC1=O)(C2)C3` [compound 317, cyclo(FLac-NMeA-AlaPyz1Ox-Nle-Phe2F-Nle-NMeF-amBCP)] (cyclo([NMeA][X6][Nle][Phe(2-F)][Nle][NMeF][X1][PhLac])) here?
Answer: The EC50 was 22.7 nM.

Question: Which EC50 does the source give for `CCCC[C@@H]1NC(=O)[C@H](Cc2cccnc2)NC(=O)[C@H](CCCn2ccnc2)N(C)C(=O)[C@H](Cc2ccccc2)NC(=O)C23CC(CNC(=O)[C@H](Cc4cccnc4)N(C)C(=O)[C@H](CCCC)NC(=O)[C@H](Cc4ccccc4F)NC1=O)(C2)C3` [compound 265, cyclo(F-NMeNvalmid~3Pal-Nle-Phe2F-Nlc-NMe3Pal-amBCP)] (cyclo(F[NMeNva(5-imidazol-1-yl)][3Pal][Nle][Phe(2-F)][Nle][NMe3Pal][X1])) here?
Answer: Its EC50 is 90.9 nM.

Question: Which EC50 does the source give for `CCCC[C@@H]1NC(=O)[C@H](Cc2ccc(CN3CCCC3)cc2)NC(=O)[C@H](CCCn2ccnc2)N(C)C(=O)[C@H](Cc2ccccc2)N(C)C(=O)C23CC(CNC(=O)[C@H](Cc4cccnc4)N(C)C(=O)[C@H](CCCC)NC(=O)[C@H](Cc4ccccc4F)NC1=O)(C2)C3` [compound 259, cyclo(NMeF-NMeNvalmid-Phe4cPyrr-Nle-Phe2F-Nle-NMe3Pal-amBCP)] (cyclo([NMe3Pal][X1][NMeF][NMeNva(5-imidazol-1-yl)][X59][Nle][Phe(2-F)][Nle])) here?
Answer: The EC50 was 3220 nM.

Question: How did the EC50 turn out when `CCCC[C@@H]1NC(=O)[C@H](Cc2ccc(C)nc2F)NC(=O)[C@H](C)N(C)C(=O)[C@H](Cc2ccccc2)OC(=O)C23CC(CNC(=O)[C@H](Cc4ccccc4)N(C)C(=O)[C@H](CCCC)NC(=O)[C@H](Cc4ccccc4F)NC1=O)(C2)C3` [compound 311, cyclo(FLac-NMeA-3Pal2F4Me-Nle-Phe2F-Nle-NMeF-amBCP)] (cyclo([NMeA][X81][Nle][Phe(2-F)][Nle][NMeF][X1][PhLac])) was run?
Answer: The EC50 was 892 nM.

Question: Which EC50 does the source give for `CCCC[C@@H]1NC(=O)[C@H](Cc2ccccc2F)NC(=O)[C@H](CC2CCC2)NC(=O)[C@@H](Cc2cccnc2)NC(=O)[C@H](CCCNC(=N)N)NC(=O)[C@H](Cc2ccccc2)NC(=O)C23COC(CNC(=O)[C@H](Cc4cccnc4)N(C)C1=O)(C2)C3` [compound 106, cyclo(F-R-d3Pal-cBuA-Phe2F-Nle-NMe3Pal-amOBCH)] (cyclo(FR[d3Pal][Cba][Phe(2-F)][Nle][NMe3Pal][X61])) here?
Answer: Its EC50 is 6820 nM.

Question: `CCCC[C@@H]1NC(=O)[C@H](Cc2ccc(O)cc2)NC(=O)[C@H](CC(C)C)NC(=O)[C@H](Cc2ccc(O)cc2)NC(=O)[C@H](CCCNC(=N)N)NC(=O)[C@H](Cc2ccccc2)NC(=O)CSCCNC(=O)[C@H](Cc2ccccc2)N(C)C1=O` [compound 69, cyclo(F-R-Y-L-Y-Nle-NMeF-Cysteamine-ClAc)] was tested. Which EC50 did it give?
Answer: Its EC50 is 1470 nM.

Question: With `CC(C)CC[C@@H]1NC(=O)[C@H](Cc2ccccc2F)NC(=O)[C@H](CC(F)F)NC(=O)[C@H](Cc2cncnc2)NC(=O)[C@H](C)N(C)C(=O)[C@H](Cc2ccccc2)OC(=O)C23CC(CNC(=O)[C@H](Cc4ccccc4)N(C)C1=O)(C2)C3` [compound 304, cyclo(FLac-NMeA-PyrimAla-AbuF2-Phe2F-hL-NMeF-amBCP)] (cyclo([NMeA][Ala(pyrimidin-5-yl)][Abu(4,4-F2)][Phe(2-F)][hLeu][NMeF][X1][PhLac])) as the compound, how does the EC50 read?
Answer: Its EC50 is 17.2 nM.

Question: For `CCCC[C@@H]1NC(=O)[C@H](Cc2ccc(OC(F)F)cc2)NC(=O)[C@H](C)N(C)C(=O)[C@H](Cc2ccccc2)OC(=O)C23CC(CNC(=O)[C@H](Cc4ccccc4)N(C)C(=O)[C@H](CCCC)NC(=O)[C@H](Cc4ccccc4F)NC1=O)(C2)C3` [compound 312, cyclo(FLac-NMeA-TyrOCF2-Nle-Phe2F-Nle-NMeF-amBCP)] (cyclo([NMeA]Y(CHF2)[Nle][Phe(2-F)][Nle][NMeF][X1][PhLac])), which EC50 is on record?
Answer: The EC50 was 966 nM.

Question: For `C[C@H]1C(=O)N[C@@H](Cc2cccnc2)C(=O)N[C@@H](CC2CCC2)C(=O)N[C@@H](Cc2ccccc2F)C(=O)N[C@@H](CCC(C)(F)F)C(=O)N(C)[C@@H](Cc2cncc(F)c2)C(=O)NCC23CC(C2)(C3)C(=O)O[C@@H](Cc2ccccc2)C(=O)N1C` [compound 285, cyclo(FLac-NMeA-3Pal-cBuA-Phe2F-Nle3F2-NMe3Pal5F-amBCP)] (cyclo([3Pal][Cba][Phe(2-F)][Nle(5,5-F2)][NMe3Pal(5-F)][X1][PhLac][NMeA])), which EC50 is on record?
Answer: Its EC50 is 13 nM.

Question: How did the EC50 turn out when `C=C(C)C[C@@H]1NC(=O)[C@H](CC2CC2)NC(=O)[C@H](Cc2cncnc2)NC(=O)[C@H](C)N(C)C(=O)[C@H](Cc2ccccc2)OC(=O)C23CC(CNC(=O)[C@H](Cc4ccccc4)N(C)C(=O)[C@H](CCC(C)C)NC1=O)(C2)C3` [compound 287, cyclo(FLac-NMeA-PyrimAla-cPrA-deHLeu-hL-NMeF-amBCP)] (cyclo([Ala(cPr)][Leu(4,5-dehydro)][hLeu][NMeF][X1][PhLac][NMeA][Ala(pyrimidin-5-yl)])) was run?
Answer: The EC50 was 720 nM.

Question: For `CCCC[C@@H]1NC(=O)[C@H](CCCCN)NC(=O)[C@H](CCCNC(=N)N)NC(=O)[C@H](Cc2cccc3ccccc23)NC(=O)CSCCNC(=O)[C@H](Cc2ccccc2)N(C)C(=O)[C@H](CCCC)NC(=O)[C@H](Cc2cccc(C(=O)O)c2)NC1=O` [compound 197, cyclo(1Nal-R-K-Nle-Phe3COOH-Nle-NMeF-Cysteamine)-ClAc] (cyclo([1Nal]RK[Nle][Phe(3-COOH)][Nle][NMeF][NHCH2CH2SCH2CO])), which EC50 is on record?
Answer: Its EC50 is 2120 nM.

Question: `CCCC[C@@H]1NC(=O)[C@H](Cc2ccc(O)cc2)NC(=O)[C@H](CCC)NC(=O)[C@H](Cc2ccc(O)cc2)NC(=O)[C@H](CCCNC(=N)N)NC(=O)[C@H](Cc2ccccc2)NC(=O)CSCCNC(=O)[C@H](Cc2ccccc2)N(C)C1=O` [compound 76, cyclo(F-R-Y-Nva-Y-Nle-NMeF-Cysteamine-ClAc)] (cyclo(FRY[Nva]Y[Nle][NMeF][NHCH2CH2SCH2CO])) was tested. Which EC50 did it give?
Answer: Its EC50 is 5310 nM.

Question: For `CCCCC[C@@H]1NC(=O)[C@H](Cc2ccc(OC)cc2)NC(=O)[C@H](CC2CCC2)NC(=O)[C@H](Cc2cncnc2)NC(=O)[C@H](CCCNC)N(C)C(=O)[C@H](Cc2ccccc2)NC(=O)CSC[C@@](C)(C(N)=O)NC(=O)[C@H](Cc2ccc(C)nc2)N(C)C1=O` [compound 394, cyclo(F-NMeOmMe-PyrimAla-cBuA-TyrOMe-Ahp-NMe3Pal4Me-aMeCl-ClAc)] ({CH2CO}-F[NMeOrn(Me)][Ala(pyrimidin-5-yl)][Cba]Y(Me)[Ahp(2)][NMe3Pal(6-Me)][αMeC]-NH2; thioether N-8), which EC50 is on record?
Answer: Its EC50 is 65.8 nM.

Question: How did the EC50 turn out when `CCCCC[C@@H]1NC(=O)[C@H](Cc2ccccc2C#N)NC(=O)[C@H](CC2CCC2)NC(=O)[C@H](Cc2cccnc2)NC(=O)[C@H](CCCNC(=N)N)NC(=O)[C@H](Cc2ccccc2)NC(=O)CSC[C@@](C)(C(N)=O)NC(=O)[C@H](Cc2ccccc2)N(C)C1=O` [compound 375, cyclo(F-R-3Pal-cBuA-Phe2CN-Ahp-NMeF-aMeCl-ClAc)] ({CH2CO}-FR[3Pal][Cba][Phe(2-CN)][Ahp(2)][NMeF][αMeC]-NH2; thioether N-8) was run?
Answer: Its EC50 is 57.9 nM.
